Assay results from paper PMC10382584, “Macrocyclization of linear molecules by deep learning to facilitate macrocyclic drug candidates discovery” (Nature Communications, 2023).

Key:
Experiment in all cases: biochemical
Set-up in all cases: DiscoveRx KINOMEscan competition binding, percent of DMSO control signal at 100 nM
Conditions in all cases: read-out: Fig. 4a / Percent Control / Compound 1; percent of DMSO control, competition binding
ITK = ITK (Homo sapiens, UniProt Q08881)
SRMS = SRMS (Homo sapiens, UniProt Q9H3Y6)
CSNK1D = CSNK1D (Homo sapiens, UniProt P48730)
CSNK1A1L = CSNK1A1L (Homo sapiens, UniProt Q8N752)
FLT3(N841I) = FLT3(N841I) (Homo sapiens, UniProt P36888, N841I)
PFTK1 = molecular target: T1, PFTK1 (Homo sapiens, UniProt O94921)
T1 construct: gene CDK14

ULK3 = ULK3 (Homo sapiens, UniProt Q6PHR2)
MELK = MELK (Homo sapiens, UniProt Q14680)
ERBB4 = ERBB4 (Homo sapiens, UniProt Q15303)
TIE1 = TIE1 (Homo sapiens, UniProt P35590)
MYLK = MYLK (Homo sapiens, UniProt Q15746)
YANK1 = molecular target: T2, YANK1 (Homo sapiens, UniProt Q8WU08)
T2 construct: gene STK32A

DYRK2 = DYRK2 (Homo sapiens, UniProt Q92630)
LKB1 = molecular target: T3, LKB1 (Homo sapiens, UniProt Q15831)
T3 construct: gene STK11

MINK = molecular target: T4, MINK (Homo sapiens, UniProt Q8N4C8)
T4 construct: gene MINK1

ERBB2 = ERBB2 (Homo sapiens, UniProt P04626)
QSK = molecular target: T5, QSK (Homo sapiens, UniProt Q9Y2K2)
T5 construct: gene SIK3

PIK3CG = PIK3CG (Homo sapiens, UniProt P48736)
BUB1 = BUB1 (Homo sapiens, UniProt O43683)
DCAMKL2 = molecular target: T6, DCAMKL2 (Homo sapiens, UniProt Q8N568)
T6 construct: gene DCLK2

FLT3(D835H) = FLT3(D835H) (Homo sapiens, UniProt P36888, D835H)
MEK2 = molecular target: T7, MEK2 (Homo sapiens, UniProt P36507)
T7 construct: gene MAP2K2

PDPK1 = PDPK1 (Homo sapiens, UniProt O15530)
CDC2L2 = molecular target: T8, CDC2L2 (Homo sapiens, UniProt Q9UQ88)
T8 construct: gene CDK11A

PIK4CB = molecular target: T9, PIK4CB (Homo sapiens, UniProt Q9UBF8)
T9 construct: gene PI4KB
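Further: KINOMEscan kinase panel binding assay, signal normalized between DMSO as 100% and a positive control compound as 0%.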

T9 sequence (Q9UBF8 whole entry): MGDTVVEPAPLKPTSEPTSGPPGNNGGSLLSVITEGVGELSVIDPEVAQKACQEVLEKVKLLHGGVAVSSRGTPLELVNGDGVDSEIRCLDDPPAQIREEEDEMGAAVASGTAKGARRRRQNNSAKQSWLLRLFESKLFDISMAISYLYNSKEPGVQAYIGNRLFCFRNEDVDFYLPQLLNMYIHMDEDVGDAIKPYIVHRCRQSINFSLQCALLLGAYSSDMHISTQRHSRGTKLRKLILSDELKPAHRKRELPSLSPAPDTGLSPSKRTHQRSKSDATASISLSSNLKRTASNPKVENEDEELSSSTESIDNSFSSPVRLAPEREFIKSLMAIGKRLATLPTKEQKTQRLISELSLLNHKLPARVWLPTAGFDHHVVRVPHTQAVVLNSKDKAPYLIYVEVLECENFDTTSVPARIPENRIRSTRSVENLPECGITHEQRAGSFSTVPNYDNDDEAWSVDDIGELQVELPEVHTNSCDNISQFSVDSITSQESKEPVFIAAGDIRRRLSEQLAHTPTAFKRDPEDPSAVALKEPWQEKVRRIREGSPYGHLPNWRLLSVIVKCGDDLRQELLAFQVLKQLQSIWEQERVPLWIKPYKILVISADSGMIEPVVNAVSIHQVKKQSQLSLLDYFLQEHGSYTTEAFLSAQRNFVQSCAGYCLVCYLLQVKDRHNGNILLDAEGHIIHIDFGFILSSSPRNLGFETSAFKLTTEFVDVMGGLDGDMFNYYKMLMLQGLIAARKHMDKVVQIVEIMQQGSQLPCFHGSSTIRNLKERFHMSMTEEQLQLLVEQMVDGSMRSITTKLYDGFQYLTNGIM
Sequence of MELK (Q14680 whole entry): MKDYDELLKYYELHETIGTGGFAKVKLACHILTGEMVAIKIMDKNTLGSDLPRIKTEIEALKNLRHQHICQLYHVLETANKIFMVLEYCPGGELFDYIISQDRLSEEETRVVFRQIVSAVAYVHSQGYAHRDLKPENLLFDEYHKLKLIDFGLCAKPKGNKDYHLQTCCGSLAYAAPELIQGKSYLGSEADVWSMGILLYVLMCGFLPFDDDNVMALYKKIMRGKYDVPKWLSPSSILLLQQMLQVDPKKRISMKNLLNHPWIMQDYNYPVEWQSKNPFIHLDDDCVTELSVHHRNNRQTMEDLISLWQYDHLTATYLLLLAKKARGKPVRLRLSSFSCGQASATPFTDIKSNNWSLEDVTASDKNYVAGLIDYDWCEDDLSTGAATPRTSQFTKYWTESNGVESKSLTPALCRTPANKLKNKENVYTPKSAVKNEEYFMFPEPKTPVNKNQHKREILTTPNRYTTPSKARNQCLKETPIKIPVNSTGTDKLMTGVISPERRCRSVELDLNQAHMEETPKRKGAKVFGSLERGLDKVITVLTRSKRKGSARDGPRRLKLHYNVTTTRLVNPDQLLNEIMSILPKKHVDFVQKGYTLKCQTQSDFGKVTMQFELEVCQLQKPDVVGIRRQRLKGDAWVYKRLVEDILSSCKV
Sequence of ULK3 (Q6PHR2 whole entry): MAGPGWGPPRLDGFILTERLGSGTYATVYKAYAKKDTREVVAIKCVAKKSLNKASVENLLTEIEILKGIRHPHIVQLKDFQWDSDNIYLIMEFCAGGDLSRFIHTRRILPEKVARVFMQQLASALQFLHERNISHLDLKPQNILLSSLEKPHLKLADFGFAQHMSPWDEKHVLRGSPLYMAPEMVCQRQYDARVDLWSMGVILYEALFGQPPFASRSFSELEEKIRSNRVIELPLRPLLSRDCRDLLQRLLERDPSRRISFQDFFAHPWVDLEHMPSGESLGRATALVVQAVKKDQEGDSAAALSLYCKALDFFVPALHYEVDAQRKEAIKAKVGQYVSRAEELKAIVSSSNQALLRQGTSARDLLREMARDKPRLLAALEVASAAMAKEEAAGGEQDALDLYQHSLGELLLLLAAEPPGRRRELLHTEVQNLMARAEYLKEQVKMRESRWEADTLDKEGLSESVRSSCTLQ
Sequence of SRMS (Q9H3Y6 whole entry): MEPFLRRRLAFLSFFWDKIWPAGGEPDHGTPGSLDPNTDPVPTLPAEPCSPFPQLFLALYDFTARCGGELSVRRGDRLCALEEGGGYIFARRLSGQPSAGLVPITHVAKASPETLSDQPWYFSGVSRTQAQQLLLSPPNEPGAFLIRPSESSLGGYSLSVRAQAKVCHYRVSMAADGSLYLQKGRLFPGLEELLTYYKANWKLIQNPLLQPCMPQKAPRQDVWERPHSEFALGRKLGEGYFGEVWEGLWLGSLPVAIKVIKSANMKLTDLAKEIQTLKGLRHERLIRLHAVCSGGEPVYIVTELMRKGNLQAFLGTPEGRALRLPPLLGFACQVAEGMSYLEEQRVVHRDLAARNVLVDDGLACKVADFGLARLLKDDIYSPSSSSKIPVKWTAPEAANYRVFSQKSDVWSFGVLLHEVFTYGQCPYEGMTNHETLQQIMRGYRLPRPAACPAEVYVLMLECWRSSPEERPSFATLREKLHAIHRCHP
Sequence of ITK (Q08881 whole entry): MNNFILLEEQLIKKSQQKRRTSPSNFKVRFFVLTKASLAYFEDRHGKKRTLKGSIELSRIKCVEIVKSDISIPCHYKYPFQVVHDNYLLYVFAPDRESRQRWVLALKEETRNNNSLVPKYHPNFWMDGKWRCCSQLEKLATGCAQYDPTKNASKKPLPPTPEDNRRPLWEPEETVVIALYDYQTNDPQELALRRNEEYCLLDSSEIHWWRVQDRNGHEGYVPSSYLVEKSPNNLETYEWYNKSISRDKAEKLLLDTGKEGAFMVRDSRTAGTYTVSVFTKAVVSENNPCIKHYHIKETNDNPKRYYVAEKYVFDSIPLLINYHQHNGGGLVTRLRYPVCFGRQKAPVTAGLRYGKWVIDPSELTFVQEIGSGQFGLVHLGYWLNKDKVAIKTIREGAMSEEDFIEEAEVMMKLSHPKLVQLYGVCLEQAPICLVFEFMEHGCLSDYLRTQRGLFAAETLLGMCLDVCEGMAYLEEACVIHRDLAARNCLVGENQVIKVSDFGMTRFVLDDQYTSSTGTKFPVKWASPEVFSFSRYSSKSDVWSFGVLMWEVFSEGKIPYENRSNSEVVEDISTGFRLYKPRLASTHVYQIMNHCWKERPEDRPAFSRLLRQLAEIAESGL
Sequence of PDPK1 (O15530 whole entry): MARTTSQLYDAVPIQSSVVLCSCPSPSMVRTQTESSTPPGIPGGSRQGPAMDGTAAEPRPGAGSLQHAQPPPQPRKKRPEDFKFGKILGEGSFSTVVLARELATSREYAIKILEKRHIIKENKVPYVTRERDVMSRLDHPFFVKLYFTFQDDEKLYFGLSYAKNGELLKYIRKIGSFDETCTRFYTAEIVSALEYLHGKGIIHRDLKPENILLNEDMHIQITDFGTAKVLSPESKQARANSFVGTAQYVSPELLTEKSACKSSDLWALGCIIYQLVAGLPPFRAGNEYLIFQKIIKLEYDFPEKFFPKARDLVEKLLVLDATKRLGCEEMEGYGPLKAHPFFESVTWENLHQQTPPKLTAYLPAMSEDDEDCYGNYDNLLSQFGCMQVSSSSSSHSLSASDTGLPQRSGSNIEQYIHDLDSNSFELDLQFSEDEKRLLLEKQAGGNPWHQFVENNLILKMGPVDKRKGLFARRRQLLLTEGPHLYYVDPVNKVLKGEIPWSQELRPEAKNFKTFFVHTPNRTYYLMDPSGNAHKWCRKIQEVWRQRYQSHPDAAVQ
Sequence of DYRK2 (Q92630 whole entry): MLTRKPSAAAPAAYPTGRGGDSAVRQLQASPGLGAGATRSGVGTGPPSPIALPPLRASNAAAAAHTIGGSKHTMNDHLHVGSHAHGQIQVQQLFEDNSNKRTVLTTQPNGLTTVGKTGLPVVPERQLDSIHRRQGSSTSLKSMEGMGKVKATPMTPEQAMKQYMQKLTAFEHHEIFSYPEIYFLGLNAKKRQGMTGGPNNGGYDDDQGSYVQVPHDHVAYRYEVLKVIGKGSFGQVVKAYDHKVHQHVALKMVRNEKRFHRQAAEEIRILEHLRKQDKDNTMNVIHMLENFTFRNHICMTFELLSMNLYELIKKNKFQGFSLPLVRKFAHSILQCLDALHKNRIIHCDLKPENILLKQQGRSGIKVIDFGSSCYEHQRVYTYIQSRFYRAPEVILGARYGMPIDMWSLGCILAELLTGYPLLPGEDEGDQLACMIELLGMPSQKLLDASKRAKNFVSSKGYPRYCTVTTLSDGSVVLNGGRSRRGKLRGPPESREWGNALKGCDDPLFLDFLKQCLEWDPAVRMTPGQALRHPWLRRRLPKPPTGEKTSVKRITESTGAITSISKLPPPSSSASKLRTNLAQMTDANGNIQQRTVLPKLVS
T7 sequence (P36507 whole entry): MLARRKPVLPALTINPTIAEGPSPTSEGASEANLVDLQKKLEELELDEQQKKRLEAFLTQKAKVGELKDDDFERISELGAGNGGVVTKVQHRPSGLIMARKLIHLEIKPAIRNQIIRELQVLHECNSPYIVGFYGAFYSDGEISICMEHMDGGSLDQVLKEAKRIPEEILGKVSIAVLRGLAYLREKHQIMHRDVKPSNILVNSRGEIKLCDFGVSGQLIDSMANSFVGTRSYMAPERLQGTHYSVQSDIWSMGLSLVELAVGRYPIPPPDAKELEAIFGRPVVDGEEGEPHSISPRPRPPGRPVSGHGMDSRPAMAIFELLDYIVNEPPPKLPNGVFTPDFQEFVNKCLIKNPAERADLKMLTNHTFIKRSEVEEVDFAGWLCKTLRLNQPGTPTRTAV
T2 sequence (Q8WU08 whole entry): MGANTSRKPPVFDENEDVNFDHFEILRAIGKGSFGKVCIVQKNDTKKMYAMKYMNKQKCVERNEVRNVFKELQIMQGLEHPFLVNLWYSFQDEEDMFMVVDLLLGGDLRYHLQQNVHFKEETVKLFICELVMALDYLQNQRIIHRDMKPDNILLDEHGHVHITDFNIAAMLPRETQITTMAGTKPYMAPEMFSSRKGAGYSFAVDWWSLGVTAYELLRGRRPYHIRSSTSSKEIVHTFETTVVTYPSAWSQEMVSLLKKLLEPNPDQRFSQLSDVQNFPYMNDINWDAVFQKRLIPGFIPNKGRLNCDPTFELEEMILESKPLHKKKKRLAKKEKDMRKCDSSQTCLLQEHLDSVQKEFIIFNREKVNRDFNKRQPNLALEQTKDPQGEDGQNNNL

Cc1cnc2nc1Nc1cccc(c1)COCc1cc(ccc1OCCN1CCCC1)N2 [Compound 1]
remaining binding at 0.1 µM (ITK): 93%
remaining binding at 0.1 µM (SRMS): 75%
remaining binding at 0.1 µM (CSNK1D): 100%
remaining binding at 0.1 µM (CSNK1A1L): 61%
remaining binding at 0.1 µM (FLT3(N841I)): 3.5%
remaining binding at 0.1 µM (PFTK1): 84%
remaining binding at 0.1 µM (ULK3): 85%
remaining binding at 0.1 µM (MELK): 100%
remaining binding at 0.1 µM (ERBB4): 82%
remaining binding at 0.1 µM (TIE1): 94%
remaining binding at 0.1 µM (MYLK): 93%
remaining binding at 0.1 µM (YANK1): 73%
remaining binding at 0.1 µM (DYRK2): 90%
remaining binding at 0.1 µM (LKB1): 100%
remaining binding at 0.1 µM (MINK): 82%
remaining binding at 0.1 µM (ERBB2): 96%
remaining binding at 0.1 µM (QSK): 63%
remaining binding at 0.1 µM (PIK3CG): 69%
remaining binding at 0.1 µM (BUB1): 82%
remaining binding at 0.1 µM (DCAMKL2): 96%
remaining binding at 0.1 µM (FLT3(D835H)): 46%
remaining binding at 0.1 µM (MEK2): 72%
remaining binding at 0.1 µM (PDPK1): 98%
remaining binding at 0.1 µM (CDC2L2): 94%
remaining binding at 0.1 µM (PIK4CB): 79%
